According to US4296112A, “Cephalosporins” (Mitsui Toatsu Chemicals, Inc., priority 1979, dated 1981):
In brackets after ≈: the same amount, converted by molar mass.

Legend:
Experiment in all cases: MIC, agar plate dilution (Referential Example 1, Table 1)
Format in all cases: cell-based
[1] = tested on: Enterobacter aerogenes (IFO 3320); details: Klebsiella aerogenes, IFO3320, 18 h, read-out: Minimum growth inhibitory concentration (MIC)
Experimental: (§1) The antibacterial activities of the cephalosporins of this invention were measured using the sodium salts of the compounds obtained in Synthesis Examples 1 and 2. The procedure and the results are shown in Referential Example 1.
(§2) Carbenicillin sodium salt (CB-PC) and cephazoline sodum salt (CEZ) were used as controls.
(§3) The antibacterial activities of the test compounds against various Gram-positive and Gram-negative bacteria were determined in a customary manner by the minimum growth inhibitory concentration method (MIC method).
(§4) The experimental procedure was as follows:
(§5) A commercially available heart infusion agar medium (to be abbreviated HIA medium) was used as an assay medium, and a commercially available trypto-soy bouillon medium (to be abbreviated TSB) was used as a medium for the growth of test bacterial strains.
(§6) The test compound was diluted with the melted HIA medium to 100 μg/ml as a maximum concentration, and then serially diluted double. The dilutions were poured into sterilized Petri dishes respectively and allowed to cool and solidify to prepare plates containing the test compound.
(§7) The test bacterial strain was cultivated at 37° C. for 18 to 24 hours in the TSB medium. The culture broth was diluted to 50 to 500 times with a freshly prepared TSB culture medium, and one platinum loopful of the dilution was inoculated in each of the plates containing the test compound.

Escherichia coli (26RO3) = details: HIA medium plate, 37° C., 18 hours, read-out: Minimum growth inhibitory concentration (MIC)
Experimental: as §1, §2, §3, §4, §5, §6, §7

Escherichia coli (K-12) = details: 18 h, read-out: Minimum growth inhibitory concentration (MIC)
Experimental: as §1, §2, §3, §4, §5, §6, §7

Escherichia coli (NIHJ) = details: 18 h, read-out: Minimum growth inhibitory concentration (MIC)
Experimental: as §1, §2, §3, §4, §5, §6, §7

[2] = tested on: Klebsiella pneumoniae (ATCC 10031); details: ATCC10031, 18 h, read-out: Minimum growth inhibitory concentration (MIC)
Experimental: as §1, §2, §3, §4, §5, §6, §7

[3] = tested on: Klebsiella pneumoniae (Horino); details: HIA medium plate, 37° C., 18 hours, read-out: Minimum growth inhibitory concentration (MIC)
Experimental: as §1, §2, §3, §4, §5, §6, §7

[4] = tested on: Pseudomonas aeruginosa (F1629); details: HIA medium plate, 37° C., 18 hours, read-out: Minimum growth inhibitory concentration (MIC)
Experimental: as §1, §2, §3, §4, §5, §6, §7

[5] = tested on: Pseudomonas aeruginosa (S-1); details: HIA medium plate, 37° C., 18 hours, read-out: Minimum growth inhibitory concentration (MIC)
Experimental: as §1, §2, §3, §4, §5, §6, §7

[6] = tested on: Pseudomonas maltophilia (F-6257); details: Stenotrophomonas maltophilia; HIA medium plate, 37° C., 18 hours; read-out: Minimum growth inhibitory concentration (MIC)
Experimental: as §1, §2, §3, §4, §5, §6, §7

[7] = tested on: Staphylococcus aureus (FDA 209P); details: FDA209P, 18 h, read-out: Minimum growth inhibitory concentration (MIC)
Experimental: as §1, §2, §3, §4, §5, §6, §7

| Compound | MIC [1] [mg/L] | MIC (Escherichia coli (26RO3)) [mg/L] | MIC (Escherichia coli (K-12)) [mg/L] | MIC (Escherichia coli (NIHJ)) [mg/L] | MIC [2] [mg/L] | MIC [3] [mg/L] | MIC [4] [mg/L] | MIC [5] [mg/L] | MIC [6] [mg/L] | MIC [7] [mg/L] |
| --- | --- | --- | --- | --- | --- | --- | --- | --- | --- | --- |
| Cc1nnc(SCC2=C(C(=O)O)N3C(=O)C(NC(=O)[C@H](NC(=O)c4cnc5c(c4O)C(=O)CCC5)c4ccc(O)cc4)C3SC2)s1 (single isomer, unassigned) [Synthesis Example 2] | 0.39 (≈ 0.571 µM) | 1.56 (≈ 2.28 µM) | 0.39 (≈ 0.571 µM) | 0.78 (≈ 1.14 µM) | 0.78 (≈ 1.14 µM) | 1.56 (≈ 2.28 µM) | 6.25 (≈ 9.15 µM) | 1.56 (≈ 2.28 µM) | 3.13 (≈ 4.58 µM) | 0.78 (≈ 1.14 µM) |
| CC(=O)OCC1=C(C(=O)O)N2C(=O)C(NC(=O)[C@H](NC(=O)c3cnc4c(c3O)C(=O)CCC4)c3ccc(O)cc3)C2SC1 (single isomer, unassigned) [Synthesis Example 1, 7-[D-(-)-α-(4-hydroxy-5-oxo-5,6,7,8-tetrahydroquinoline-3-carboxamide)-α-(4-hydroxyphenyl)acetamido]-3-acetoxymethyl-Δ^3-cephem-4-carboxylic acid] | 0.39 (≈ 0.639 µM) | 3.13 (≈ 5.13 µM) | 1.56 (≈ 2.55 µM) | 1.56 (≈ 2.55 µM) | 1.56 (≈ 2.55 µM) | 3.13 (≈ 5.13 µM) | 12.5 (≈ 20.5 µM) | 3.13 (≈ 5.13 µM) | 0.25 (≈ 0.409 µM) | 1.56 (≈ 2.55 µM) |
